Consider 6 compounds from ChEMBL document CHEMBL1697781, “Assessment of the health effects of chemicals in humans: II. Construction of an adverse effects database for QSAR modeling” (Curr Drug Discov Technol, 2004).

A value given as a limit tells only on which side of the number the result lay.

Conditions in all cases: human; call rule not given here
Data set [1] deals with Hepatotoxicity. Kind of data set: FDA HLAED, liver enzyme composite activity.
Data set [2] deals with Hepatotoxicity. Kind of data set: FDA HLAED, alkaline phosphatase increase.
In data set [3] the test system is Hepatotoxicity. Kind of data set: FDA HLAED, serum glutamic oxaloacetic transaminase (SGOT) increase.
In data set [4] the test system is Hepatotoxicity. Kind of data set: FDA HLAED, serum glutamic pyruvic transaminase (SGPT) increase.
In data set [5] the test system is Hepatotoxicity. The data set can be described thus: FDA HLAED, lactate dehydrogenase (LDH) increase.
Data set [6] concerns Hepatotoxicity. The data set can be described thus: FDA HLAED, gamma-glutamyl transferase (GGT) increase.
Wherever GGT Increase - Index Value is given: reference of the scale not given here.
Wherever LDH Increase - Index Value is given: reference of the scale not given here.

On to `CC(C)C[C@H]1C(=O)N2CCC[C@H]2[C@]2(O)O[C@](NC(=O)[C@@H]3C=C4c5cccc6[nH]c(Br)c(c56)C[C@H]4N(C)C3)(C(C)C)C(=O)N12` [BROMOCRIPTINE], for which, in the data set on Hepatotoxicity [1], the “Composite Activity - Active” value turned out to be 0, the “Composite Activity - Marginal” value was 0 and the “Composite Activity - Score” value is recorded as “Inactive”. In the data set on Hepatotoxicity [2], the “Alkaline Phosphatase Increase - Activity Score” value was “Inactive”, the “Alkaline Phosphatase Increase - Index Value” is recorded as 0 and the “Alkaline Phosphatase Increase - Number of Reports” value was < 4. In addition, in the data set with Hepatotoxicity [3], the “SGOT Increase - Activity Score” value is listed as “Inactive”, the “SGOT Increase - Index Value” was 0 and the “SGOT Increase - Number of Reports” value is recorded as < 4. Further, in the data set with Hepatotoxicity [4], the “SGPT Increase - Activity Score” value is given as “Inactive”, the “SGPT Increase - Index Value” was 0 and the “SGPT Increase - Number of Reports” value is < 4. Further, in the data set with Hepatotoxicity [5], the “LDH Increase - Activity Score” value is “Inactive”, the “LDH Increase - Index Value” was determined as 0 and the “LDH Increase - Number of Reports” value was < 4. For the same compound, in the data set on Hepatotoxicity [6], the “GGT Increase - Activity Score” value is reported as “Inactive”, the “GGT Increase - Index Value” stood at 0 and the “GGT Increase - Number of Reports” value is listed as < 4.
For `CCCC1O[C@@H]2C[C@H]3[C@@H]4CCC5=CC(=O)C=C[C@]5(C)[C@H]4[C@@H](O)C[C@]3(C)[C@]2(C(=O)CO)O1` (stereo partly drawn) [BUDESONIDE], in the data set on Hepatotoxicity [1], the “Composite Activity - Active” value stood at 0, the “Composite Activity - Marginal” value is given as 0 and the “Composite Activity - Score” value is on record as “Inactive”. In addition, in the data set on Hepatotoxicity [2], the “Alkaline Phosphatase Increase - Activity Score” value was “Inactive”, the “Alkaline Phosphatase Increase - Index Value” is recorded as 0.2 and the “Alkaline Phosphatase Increase - Number of Reports” value is listed as < 4. Moreover, in the data set with Hepatotoxicity [3], the “SGOT Increase - Activity Score” value is reported as “Inactive”, the “SGOT Increase - Index Value” was 0 and the “SGOT Increase - Number of Reports” value is < 4. Moreover, in the data set on Hepatotoxicity [4], the “SGPT Increase - Activity Score” value is on record as “Inactive”, the “SGPT Increase - Index Value” was 0 and the “SGPT Increase - Number of Reports” value is given as < 4. Besides, in the data set with Hepatotoxicity [5], the “LDH Increase - Activity Score” value is recorded as “Inactive”, the “LDH Increase - Index Value” was 0 and the “LDH Increase - Number of Reports” value is recorded as < 4. For the same compound, in the data set on Hepatotoxicity [6], the “GGT Increase - Activity Score” value is “Inactive”, the “GGT Increase - Index Value” turned out to be 0 and the “GGT Increase - Number of Reports” value is < 4.
Take `CCCCNc1cc(C(=O)O)cc(S(N)(=O)=O)c1Oc1ccccc1` [BUMETANIDE]: in the data set with Hepatotoxicity [1], the “Composite Activity - Active” value is reported as 0, the “Composite Activity - Marginal” value came out at 0 and the “Composite Activity - Score” value is given as “Inactive”. In addition, in the data set on Hepatotoxicity [2], the “Alkaline Phosphatase Increase - Activity Score” value is recorded as “Inactive”, the “Alkaline Phosphatase Increase - Index Value” worked out at 0 and the “Alkaline Phosphatase Increase - Number of Reports” value is < 4. For the same compound, in the data set with Hepatotoxicity [3], the “SGOT Increase - Activity Score” value is on record as “Inactive”, the “SGOT Increase - Index Value” is listed as 0 and the “SGOT Increase - Number of Reports” value is < 4. Moreover, in the data set with Hepatotoxicity [4], the “SGPT Increase - Activity Score” value is on record as “Inactive”, the “SGPT Increase - Index Value” is 0 and the “SGPT Increase - Number of Reports” value was < 4. In the data set on Hepatotoxicity [5], the “LDH Increase - Activity Score” value is on record as “Inactive”, the “LDH Increase - Index Value” is listed as 0 and the “LDH Increase - Number of Reports” value is listed as < 4. Besides, in the data set with Hepatotoxicity [6], the “GGT Increase - Activity Score” value is recorded as “Inactive”, the “GGT Increase - Index Value” worked out at 0 and the “GGT Increase - Number of Reports” value is < 4.
For the compound `CO[C@]12CC[C@@]3(C[C@@H]1[C@](C)(O)C(C)(C)C)[C@H]1Cc4ccc(O)c5c4[C@@]3(CCN1CC1CC1)[C@H]2O5` [BUPRENORPHINE], in the data set with Hepatotoxicity [1], the “Composite Activity - Active” value turned out to be 0, the “Composite Activity - Marginal” value came out at 0 and the “Composite Activity - Score” value is recorded as “Inactive”. In addition, in the data set on Hepatotoxicity [2], the “Alkaline Phosphatase Increase - Activity Score” value is “Inactive”, the “Alkaline Phosphatase Increase - Index Value” stood at 0 and the “Alkaline Phosphatase Increase - Number of Reports” value is recorded as < 4. For the same compound, in the data set with Hepatotoxicity [3], the “SGOT Increase - Activity Score” value is recorded as “Inactive”, the “SGOT Increase - Index Value” turned out to be 0 and the “SGOT Increase - Number of Reports” value is < 4. Moreover, in the data set with Hepatotoxicity [4], the “SGPT Increase - Activity Score” value is listed as “Inactive”, the “SGPT Increase - Index Value” turned out to be 0 and the “SGPT Increase - Number of Reports” value is listed as < 4. In the data set with Hepatotoxicity [5], the “LDH Increase - Activity Score” value is on record as “Inactive”, the “LDH Increase - Index Value” stood at 0 and the “LDH Increase - Number of Reports” value was < 4. Besides, in the data set with Hepatotoxicity [6], the “GGT Increase - Activity Score” value is “Inactive”, the “GGT Increase - Index Value” was 0 and the “GGT Increase - Number of Reports” value is listed as < 4.
In the case of `CC(NC(C)(C)C)C(=O)c1cccc(Cl)c1` (stereo not drawn) [BUPROPION], in the data set with Hepatotoxicity [1], the “Composite Activity - Active” value was 0, the “Composite Activity - Marginal” value stood at 0 and the “Composite Activity - Score” value is given as “Inactive”. For the same compound, in the data set on Hepatotoxicity [2], the “Alkaline Phosphatase Increase - Activity Score” value was “Inactive”, the “Alkaline Phosphatase Increase - Index Value” worked out at 0 and the “Alkaline Phosphatase Increase - Number of Reports” value was < 4. Further, in the data set on Hepatotoxicity [3], the “SGOT Increase - Activity Score” value was “Inactive”, the “SGOT Increase - Index Value” was 0 and the “SGOT Increase - Number of Reports” value is on record as < 4. Besides, in the data set on Hepatotoxicity [4], the “SGPT Increase - Activity Score” value was “Inactive”, the “SGPT Increase - Index Value” is reported as 0 and the “SGPT Increase - Number of Reports” value is < 4. Further, in the data set on Hepatotoxicity [5], the “LDH Increase - Activity Score” value is reported as “Inactive”, the “LDH Increase - Index Value” was 0 and the “LDH Increase - Number of Reports” value is recorded as < 4. In the data set with Hepatotoxicity [6], the “GGT Increase - Activity Score” value is reported as “Inactive”, the “GGT Increase - Index Value” was 0 and the “GGT Increase - Number of Reports” value is listed as < 4.
As to `O=C1CC2(CCCC2)CC(=O)N1CCCCN1CCN(c2ncccn2)CC1` [BUSPIRONE], in the data set with Hepatotoxicity [1], the “Composite Activity - Active” value came to 0, the “Composite Activity - Marginal” value was 1 and the “Composite Activity - Score” value is “Inactive”. For the same compound, in the data set with Hepatotoxicity [2], the “Alkaline Phosphatase Increase - Activity Score” value is “Inactive”, the “Alkaline Phosphatase Increase - Index Value” worked out at 0.9 and the “Alkaline Phosphatase Increase - Number of Reports” value is reported as “>= 4”. Also, in the data set with Hepatotoxicity [3], the “SGOT Increase - Activity Score” value is listed as “Inactive”, the “SGOT Increase - Index Value” is listed as 2.4 and the “SGOT Increase - Number of Reports” value is reported as “>= 4”. In the data set on Hepatotoxicity [4], the “SGPT Increase - Activity Score” value is recorded as “Marginally Active”, the “SGPT Increase - Index Value” came to 3.1 and the “SGPT Increase - Number of Reports” value was “>= 4”. Besides, in the data set with Hepatotoxicity [5], the “LDH Increase - Activity Score” value was “Inactive”, the “LDH Increase - Index Value” was 0.4 and the “LDH Increase - Number of Reports” value was < 4. Further, in the data set on Hepatotoxicity [6], the “GGT Increase - Activity Score” value is reported as “Inactive”, the “GGT Increase - Index Value” stood at 0.6 and the “GGT Increase - Number of Reports” value is listed as < 4.
